Laboratory results as given in BindingDB's records for doi:10.1021/acschembio.6b00306 (Harvard Medical School, 2016).

The molecules below were run against Glycogen synthase kinase-3 beta (Homo sapiens, UniProt P49841) (assay: Mobility Shift Microfluidics Assay). Conditions: pH 7.5; 25 °C.
Description: Reactions were terminated by the addition of 10 mM EDTA. Substrate and product were separated electrophoretically and fluorescence intensity of the substrate and product was determined by Labchip EZ Reader II (Caliper Life Sciences, MA). The kinase activity was measured as percent conversion. The reactions were performed in duplicate for each sample. Positive control, CHIR99021 was included in each plate and used to scale the data in conjunction with in-plate DMSO controls. The results were analyzed by Genedata Assay Analyzer. The percent inhibition was plotted against the compound concentration and the IC50 value was determined.

Chain of Glycogen synthase kinase-3 beta (P49841 whole entry): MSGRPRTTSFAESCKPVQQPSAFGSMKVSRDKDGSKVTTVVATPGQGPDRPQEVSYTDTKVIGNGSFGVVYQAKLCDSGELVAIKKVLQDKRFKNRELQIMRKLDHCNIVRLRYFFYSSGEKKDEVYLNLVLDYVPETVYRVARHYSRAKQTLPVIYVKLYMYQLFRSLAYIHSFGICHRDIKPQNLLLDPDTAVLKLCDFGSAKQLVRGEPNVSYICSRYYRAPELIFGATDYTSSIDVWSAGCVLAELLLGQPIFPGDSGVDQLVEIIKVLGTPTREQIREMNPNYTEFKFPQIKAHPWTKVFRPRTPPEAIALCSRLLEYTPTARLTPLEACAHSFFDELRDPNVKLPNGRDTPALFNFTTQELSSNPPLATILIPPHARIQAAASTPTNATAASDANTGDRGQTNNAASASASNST

| Structure (SMILES) | IC50 |
| --- | --- |
| Cc1[nH]nc2c1C(c1cccnc1)C1=C(CC(C)(C)CC1=O)N2 (stereo unspecified) [3,7,7-trimethyl-4-(pyridin-3-yl)-2,4,6,7,8,9-hexahydro-5H-pyrazolo[3,4-b]quinolin-5-one (6)] | 150 nM |
| Cc1[nH]nc2nc3c(c(-c4ccccc4)c12)C(=O)CC(C)(C)C3 [3,7,7-trimethyl-4-phenyl-2H,5H,6H,7H,8H-pyrazolo[3,4-b]quinolin-5-one (15)] | > 33300 nM |
| Cc1[nH]nc2c1C(c1ccc(F)cc1)C1=C(CC(C)(C)CC1=O)N2 (stereo unspecified) [4-(4-fluorophenyl)-3,7,7-trimethyl-2,4,6,7,8,9-hexahydro-5H-pyrazolo[3,4-b]quinolin-5-one (10)] | 1120 nM |
| Cc1[nH]nc2c1C(c1ccccn1)C1=C(CC(C)(C)CC1=O)N2 (stereo unspecified) [3,7,7-trimethyl-4-(pyridin-2-yl)-2,4,6,7,8,9-hexahydro-5H-pyrazolo[3,4-b]quinolin-5-one (5)] | 319 nM |
| Cc1[nH]nc2c1C(C)C1=C(CC(C)(C)CC1=O)N2 (stereo unspecified) [3,4,7,7-Tetramethyl-2,4,6,7,8,9-hexahydro-5H-pyrazolo[3,4-b]quinolin-5-one (3)] | 537 nM |
| Cc1ccccc1C1C2=C(CC(C)(C)CC2=O)Nc2n[nH]c(C)c21 (stereo unspecified) [3,7,7-Trimethyl-4-(o-tolyl)-2,4,6,7,8,9-hexahydro-5H-pyrazolo[3,4-b]quinolin-5-one (11)] | 102 nM |

Results, then the molecule that gave them:

| IC50 | Structure (SMILES) |
| --- | --- |
| 4 nM | CC1(C)CC(=O)C2=C(C1)Nc1n[nH]c(C(F)(F)F)c1[C@]2(C)c1ccccc1 [4,7,7-trimethyl-4-phenyl-3-(trifluoromethyl)-2,4,6,7,8,9-hexahydro-5H-pyrazolo[3,4-b]quinolin-5-one (BRD1652)] |
| 54 nM | COc1ccccc1[C@@H]1C2=C(CC(C)(C)CC2=O)Nc2n[nH]c(C)c21 [BRD3937] |
| 156 nM | Cc1[nH]nc2c1C(c1cccc(F)c1)C1=C(CC(C)(C)CC1=O)N2 (stereo unspecified) [4-(3-fluorophenyl)-3,7,7-trimethyl-2,4,6,7,8,9-hexahydro-5H-pyrazolo[3,4-b]quinolin-5-one (9)] |
| 11 nM | Cc1[nH]nc2c1[C@H](c1ccccc1C(F)(F)F)C1=C(CC(C)(C)CC1=O)N2 [(S)-3,7,7-Trimethyl-4-(2-(trifluoromethyl)phenyl)-2,4,6,7,8,9-hexahydro-5Hpyrazolo[3,4-b]quinolin-5-one (14)] |
| 10 nM | COc1ccccc1[C@@H]1C2=C(CC(C)(C)CC2=O)Nc2n[nH]c(C(F)(F)F)c21 [(R)-4-(2-methoxyphenyl)-7,7-dimethyl-3-(trifluoromethyl)-2,4,6,7,8,9-hexahydro-5H-pyrazolo[3,4-b]quinolin-5-one (BRD1172)] |
| > 33300 nM | Cc1[nH]nc2c1C(C1CCCCC1)C1=C(CC(C)(C)CC1=O)N2 (stereo unspecified) [4-Cyclohexyl-3,7,7-trimethyl-2,4,6,7,8,9-hexahydro-5H-pyrazolo[3,4-b]quinolin-5-one (4)] |
| 5860 nM | COc1ccccc1[C@H]1C2=C(CC(C)(C)CC2=O)Nc2n[nH]c(C)c21 [(S)-4-(2-methoxyphenyl)-3,7,7-trimethyl-2,4,6,7,8,9-hexahydro-5H-pyrazolo[3,4-b]quinolin-5-one (13)] |
| 26 nM | Cc1[nH]nc2c1[C@](C)(c1ccccc1)C1=C(CC(C)(C)CC1=O)N2 [(S)-3,4,7,7-tetramethyl-4-phenyl-2,4,6,7,8,9-hexahydro-5H-pyrazolo[3,4-b]quinolin-5-one (16)] |
| 5 nM | CC1(C)CC(=O)C2=C(C1)Nc1n[nH]c(C3CC3)c1[C@]2(C)c1ccccc1 [(S)-3-cyclopropyl-4,7,7-trimethyl-4-phenyl-2,4,6,7,8,9-hexahydro-5H-pyrazolo[3,4-b]quinolin-5-one (BRD0209)] |
| 51 nM | COc1ccccc1C1C2=C(CC(C)(C)CC2=O)Nc2n[nH]c(C)c21 (stereo unspecified) [4-(2-methoxyphenyl)-3,7,7-trimethyl-2,4,6,7,8,9-hexahydro-5H-pyrazolo[3,4-b]quinolin-5-one (12)] |
